Results from ChEMBL document CHEMBL2074103, “Up-regulation of the multidrug resistance genes, Mrp1 and Mdr1b, and down-regulation of the organic anion transporter, Mrp2, and the bile salt transporter, Spgp, in endotoxemic rat liver” (Hepatology, 1998).

Key:
Assay type in all cases: functional, organism-based
[1] = target: ATP-dependent translocase ABCB1 (Rattus norvegicus, UniProt P43245); assay: (§1) TP_TRANSPORTER: RT-PCR in vivo, liver of Wistar rat
[2] = target: T1, ATP-binding cassette sub-family C member 2 (Rattus norvegicus, UniProt Q63120); assay: as §1
[3] = target: T2, Multidrug resistance-associated protein 1 (Rattus norvegicus, UniProt Q8CG09); assay: as §1
Bile salt export pump [4] = target: T3, Bile salt export pump (Rattus norvegicus, UniProt O70127); assay: as §1
T3 sequence (O70127 whole entry): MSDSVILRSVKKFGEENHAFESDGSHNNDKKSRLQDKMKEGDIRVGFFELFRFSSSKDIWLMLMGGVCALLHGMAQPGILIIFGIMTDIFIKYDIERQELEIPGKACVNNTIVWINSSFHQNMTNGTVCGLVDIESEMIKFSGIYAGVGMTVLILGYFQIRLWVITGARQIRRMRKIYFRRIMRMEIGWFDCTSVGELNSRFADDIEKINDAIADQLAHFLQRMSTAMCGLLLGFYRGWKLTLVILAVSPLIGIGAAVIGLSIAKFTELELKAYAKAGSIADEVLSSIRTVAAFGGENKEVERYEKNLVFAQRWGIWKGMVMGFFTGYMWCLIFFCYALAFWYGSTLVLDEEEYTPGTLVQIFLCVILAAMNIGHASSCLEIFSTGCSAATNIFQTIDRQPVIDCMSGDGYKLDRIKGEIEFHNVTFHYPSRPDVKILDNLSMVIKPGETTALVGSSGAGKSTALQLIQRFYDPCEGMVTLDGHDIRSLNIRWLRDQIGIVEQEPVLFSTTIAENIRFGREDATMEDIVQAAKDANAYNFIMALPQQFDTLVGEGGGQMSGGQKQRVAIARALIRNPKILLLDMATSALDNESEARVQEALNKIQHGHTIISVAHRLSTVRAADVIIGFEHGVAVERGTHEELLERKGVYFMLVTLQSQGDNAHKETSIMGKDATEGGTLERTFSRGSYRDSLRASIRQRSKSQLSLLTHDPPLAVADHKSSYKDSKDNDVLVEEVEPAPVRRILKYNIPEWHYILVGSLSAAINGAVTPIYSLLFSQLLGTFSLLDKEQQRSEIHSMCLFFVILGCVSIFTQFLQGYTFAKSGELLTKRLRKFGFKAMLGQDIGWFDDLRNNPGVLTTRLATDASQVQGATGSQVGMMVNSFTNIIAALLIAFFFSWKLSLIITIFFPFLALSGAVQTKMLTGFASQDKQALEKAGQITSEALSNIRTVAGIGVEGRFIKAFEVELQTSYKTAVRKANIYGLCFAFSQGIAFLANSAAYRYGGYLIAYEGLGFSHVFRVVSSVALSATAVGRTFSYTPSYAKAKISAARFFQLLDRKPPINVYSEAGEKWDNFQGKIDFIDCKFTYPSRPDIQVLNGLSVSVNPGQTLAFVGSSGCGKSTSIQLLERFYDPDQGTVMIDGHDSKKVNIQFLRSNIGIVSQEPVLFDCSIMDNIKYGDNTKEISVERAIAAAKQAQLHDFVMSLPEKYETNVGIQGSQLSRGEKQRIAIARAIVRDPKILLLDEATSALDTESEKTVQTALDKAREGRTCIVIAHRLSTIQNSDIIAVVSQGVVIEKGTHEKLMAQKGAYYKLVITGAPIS

[5] = target: Multidrug resistance protein 1a (Rattus norvegicus) (UniProt Q6PSM0); assay: (§2) TP_TRANSPORTER: Western in vivo, liver of Wistar rat
[6] = target: T1, ATP-binding cassette sub-family C member 2; assay: as §2
[7] = target: T2, Multidrug resistance-associated protein 1; assay: as §2
Bile salt export pump [8] = target: T3, Bile salt export pump; assay: as §2

T2 sequence (Q8CG09 whole entry): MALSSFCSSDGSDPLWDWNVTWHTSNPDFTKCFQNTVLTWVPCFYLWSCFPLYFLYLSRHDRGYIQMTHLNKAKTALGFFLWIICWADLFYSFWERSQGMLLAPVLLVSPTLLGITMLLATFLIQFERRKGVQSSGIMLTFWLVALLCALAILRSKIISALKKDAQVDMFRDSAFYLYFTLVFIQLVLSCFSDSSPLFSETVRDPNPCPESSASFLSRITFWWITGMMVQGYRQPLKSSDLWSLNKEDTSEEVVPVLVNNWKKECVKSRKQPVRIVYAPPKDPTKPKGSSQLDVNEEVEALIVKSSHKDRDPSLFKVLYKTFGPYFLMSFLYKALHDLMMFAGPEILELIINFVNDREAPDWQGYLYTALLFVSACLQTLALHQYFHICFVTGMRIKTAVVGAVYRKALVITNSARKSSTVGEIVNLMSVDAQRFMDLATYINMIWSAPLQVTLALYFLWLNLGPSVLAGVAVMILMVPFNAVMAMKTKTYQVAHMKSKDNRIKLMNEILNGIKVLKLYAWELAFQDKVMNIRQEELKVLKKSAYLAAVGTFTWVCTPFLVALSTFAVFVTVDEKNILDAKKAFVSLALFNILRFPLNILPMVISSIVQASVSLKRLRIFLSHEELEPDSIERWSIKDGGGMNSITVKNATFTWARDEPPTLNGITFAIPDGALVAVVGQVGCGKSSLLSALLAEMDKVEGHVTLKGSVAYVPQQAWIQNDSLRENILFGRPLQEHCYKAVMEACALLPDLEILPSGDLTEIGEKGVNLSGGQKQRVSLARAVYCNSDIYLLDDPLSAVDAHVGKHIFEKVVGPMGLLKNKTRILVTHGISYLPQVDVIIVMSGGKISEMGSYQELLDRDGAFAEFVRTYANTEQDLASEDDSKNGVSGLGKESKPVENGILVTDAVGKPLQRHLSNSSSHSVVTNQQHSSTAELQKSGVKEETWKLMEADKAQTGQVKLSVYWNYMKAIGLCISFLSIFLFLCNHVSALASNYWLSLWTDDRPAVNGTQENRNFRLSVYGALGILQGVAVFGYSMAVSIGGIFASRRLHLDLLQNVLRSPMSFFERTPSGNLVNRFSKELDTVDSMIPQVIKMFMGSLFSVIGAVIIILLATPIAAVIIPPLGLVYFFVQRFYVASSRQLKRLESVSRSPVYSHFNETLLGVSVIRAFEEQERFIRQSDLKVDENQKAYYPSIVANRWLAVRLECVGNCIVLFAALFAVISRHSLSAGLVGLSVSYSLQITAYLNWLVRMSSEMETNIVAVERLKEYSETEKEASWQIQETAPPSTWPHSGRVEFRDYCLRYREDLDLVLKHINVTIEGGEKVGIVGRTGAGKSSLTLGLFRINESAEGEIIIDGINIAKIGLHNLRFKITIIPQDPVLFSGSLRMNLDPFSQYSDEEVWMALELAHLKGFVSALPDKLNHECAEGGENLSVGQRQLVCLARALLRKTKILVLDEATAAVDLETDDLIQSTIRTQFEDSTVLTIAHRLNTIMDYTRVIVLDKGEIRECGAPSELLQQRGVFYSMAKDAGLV
T1 sequence (Q63120 whole entry): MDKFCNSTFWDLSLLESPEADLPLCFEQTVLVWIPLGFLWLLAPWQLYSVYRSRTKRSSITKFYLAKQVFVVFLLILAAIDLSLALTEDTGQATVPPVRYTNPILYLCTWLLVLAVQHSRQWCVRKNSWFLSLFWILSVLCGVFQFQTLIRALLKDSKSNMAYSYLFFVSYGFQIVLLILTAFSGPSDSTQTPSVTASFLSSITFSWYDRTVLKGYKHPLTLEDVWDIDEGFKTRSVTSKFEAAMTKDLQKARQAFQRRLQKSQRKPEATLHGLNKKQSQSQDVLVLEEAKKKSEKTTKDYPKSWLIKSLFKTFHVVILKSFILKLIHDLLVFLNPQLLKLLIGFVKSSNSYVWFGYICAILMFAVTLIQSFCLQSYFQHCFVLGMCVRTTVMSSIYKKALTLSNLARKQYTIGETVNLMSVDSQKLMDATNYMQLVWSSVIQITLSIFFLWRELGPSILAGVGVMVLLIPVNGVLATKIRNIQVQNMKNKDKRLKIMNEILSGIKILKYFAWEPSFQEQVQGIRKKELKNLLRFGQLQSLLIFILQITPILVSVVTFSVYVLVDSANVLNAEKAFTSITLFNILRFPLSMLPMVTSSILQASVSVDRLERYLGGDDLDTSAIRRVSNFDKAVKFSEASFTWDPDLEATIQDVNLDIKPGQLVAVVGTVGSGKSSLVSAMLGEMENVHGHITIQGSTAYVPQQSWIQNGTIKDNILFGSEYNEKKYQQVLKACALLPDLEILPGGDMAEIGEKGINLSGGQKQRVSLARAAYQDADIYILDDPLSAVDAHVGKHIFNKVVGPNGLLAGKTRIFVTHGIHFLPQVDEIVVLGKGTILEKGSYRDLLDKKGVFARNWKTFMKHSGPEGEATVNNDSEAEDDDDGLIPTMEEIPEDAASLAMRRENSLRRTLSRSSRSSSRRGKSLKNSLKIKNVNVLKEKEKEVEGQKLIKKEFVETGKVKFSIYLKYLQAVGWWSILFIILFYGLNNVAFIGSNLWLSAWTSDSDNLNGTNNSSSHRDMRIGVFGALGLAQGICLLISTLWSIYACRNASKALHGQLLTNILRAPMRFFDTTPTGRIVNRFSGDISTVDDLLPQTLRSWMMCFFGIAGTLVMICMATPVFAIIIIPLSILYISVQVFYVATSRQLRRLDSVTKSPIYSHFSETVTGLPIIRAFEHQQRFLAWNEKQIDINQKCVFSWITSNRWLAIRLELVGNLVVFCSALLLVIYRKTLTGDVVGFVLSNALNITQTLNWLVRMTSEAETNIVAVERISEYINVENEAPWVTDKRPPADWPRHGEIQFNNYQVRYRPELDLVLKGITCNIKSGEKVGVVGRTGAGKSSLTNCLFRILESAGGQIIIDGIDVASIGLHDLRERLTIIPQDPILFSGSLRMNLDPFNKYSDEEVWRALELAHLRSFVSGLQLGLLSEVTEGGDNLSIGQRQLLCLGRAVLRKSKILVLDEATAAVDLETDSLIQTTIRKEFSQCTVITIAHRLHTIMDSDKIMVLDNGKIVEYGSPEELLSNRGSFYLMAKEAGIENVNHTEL
Sequence of ATP-dependent translocase ABCB1 (P43245 whole entry): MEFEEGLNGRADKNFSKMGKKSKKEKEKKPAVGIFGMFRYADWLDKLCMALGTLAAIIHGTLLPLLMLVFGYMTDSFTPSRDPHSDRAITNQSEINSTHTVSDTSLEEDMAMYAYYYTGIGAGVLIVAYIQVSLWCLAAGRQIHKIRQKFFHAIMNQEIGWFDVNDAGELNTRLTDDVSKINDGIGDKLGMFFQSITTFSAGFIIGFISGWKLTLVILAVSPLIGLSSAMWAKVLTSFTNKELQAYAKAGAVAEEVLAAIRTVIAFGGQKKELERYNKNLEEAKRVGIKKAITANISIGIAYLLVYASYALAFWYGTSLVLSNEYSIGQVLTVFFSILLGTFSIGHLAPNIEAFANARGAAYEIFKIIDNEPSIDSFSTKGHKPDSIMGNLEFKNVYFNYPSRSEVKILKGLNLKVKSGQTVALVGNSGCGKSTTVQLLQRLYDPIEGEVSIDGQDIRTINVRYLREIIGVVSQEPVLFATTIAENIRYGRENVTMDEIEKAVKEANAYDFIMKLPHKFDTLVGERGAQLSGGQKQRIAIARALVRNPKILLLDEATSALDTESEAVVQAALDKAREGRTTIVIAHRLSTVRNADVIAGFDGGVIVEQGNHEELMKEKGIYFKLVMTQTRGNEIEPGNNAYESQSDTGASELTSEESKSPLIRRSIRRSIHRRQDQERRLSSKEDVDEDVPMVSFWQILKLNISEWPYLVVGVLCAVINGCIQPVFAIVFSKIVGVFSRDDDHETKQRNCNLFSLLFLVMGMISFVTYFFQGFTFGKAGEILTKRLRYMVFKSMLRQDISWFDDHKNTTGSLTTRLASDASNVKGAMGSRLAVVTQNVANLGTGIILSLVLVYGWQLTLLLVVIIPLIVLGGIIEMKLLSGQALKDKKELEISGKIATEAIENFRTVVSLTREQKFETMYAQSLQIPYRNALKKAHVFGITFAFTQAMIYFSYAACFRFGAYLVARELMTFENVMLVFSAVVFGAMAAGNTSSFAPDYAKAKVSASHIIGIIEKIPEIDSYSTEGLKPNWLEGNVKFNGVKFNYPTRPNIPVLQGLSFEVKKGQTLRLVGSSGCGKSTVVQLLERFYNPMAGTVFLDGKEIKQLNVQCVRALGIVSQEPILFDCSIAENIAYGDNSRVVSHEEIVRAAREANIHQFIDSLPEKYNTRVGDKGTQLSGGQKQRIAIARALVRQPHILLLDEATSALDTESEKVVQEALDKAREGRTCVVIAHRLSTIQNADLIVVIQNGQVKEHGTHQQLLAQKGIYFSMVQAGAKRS

Activity [1]: inducer [+] | Activity [2]: inducer [Decrease] | Activity [3]: inducer [+] | Activity (Bile salt export pump [4]): inducer [Decrease] | Activity [5]: inducer [Decrease] | Activity [6]: inducer [Decrease] | Activity [7]: inducer [+] | Activity (Bile salt export pump [8]): inducer [Decrease]
SMILES: CCCCCCCCCCCCCC(=O)OC(CCCCCCCCCCC)CC(=O)OC1C(NC(=O)CC(CCCCCCCCCCC)OC(=O)CCCCCCCCCCC)C(OC2CC(OC(=O)CC(O)CCCCCCCCCCC)C(NC(=O)CC(O)CCCCCCCCCCC)C(O)O2)OC(CO)C1OP(=O)(O)O (stereo not drawn)
